The values below come from patent US12234257B2, “Triterpene saponin derivative and use thereof” (KOREA INSTITUTE OF SCIENCE AND TECHNOLOGY, priority 2020, dated 2025).

Common to all, as to format: cell-based, human
Experiment [1] has as its system GFP-RFP-LC3-II puncta in SH-SY5Y cells. In words: Tandem fluorescent protein quenching assay (RFP-GFP-LC3). The conditions noted are these: transfected SH-SY5Y cells, AKNS-2 10 μM alone vs control cells. As to the method:
SH-SY5Y cells were cultured in a 24-well plate at a density of 8×10^4 cells/well on a glass cover slip. Transfection was performed in accordance with guidelines of the autophagy tandem RFP-GFP-LC3B kit. After culturing the cells for 24 hours, the cells were treated with an LC3B reagent. After the transfected cells were incubated for 24 hours, 50 nM Wart or 100 nM Baf was administered thereto, and then AKNS-2 (10 μM) was added thereto. The cells were immobilized with 4% paraformaldehyde and permeabilized with 0.1% Triton X100. Nuclei thereof were stained with 4,6-diamidino-2-phenylindole (DAPI, 25 μg/mL). Fluorescent signals were detected using a confocal microscope (Leica, Solms, Germany).

Experiment [2] has as its system autophagy-related protein markers (LC3-II, p62, p-AMPK, p-Erk, p-ULK, p-mTOR) in SH-SY5Y cells. In words: Western blot of autophagy-related protein markers in SH-SY5Y cells. As to the method: Human neuroblastoma (SH-SY5Y) cells were purchased from the American Type Culture Collection (Manassas, Va., USA) and cultured in DMEM supplemented with 10% heat-inactivated FBS and 1% penicillin/streptomycin. The SH-SY5Y cells were cultured at 37° C. in a humid atmosphere containing 5% CO2. […] The SH-SY5Y cells were transfected with AMPK siRNA and then administered with AKNS-2 at 36 hours after siRNA transfection. […] After 24 hours from treatment with the samples, the SH-SY5Y cells were recovered and used for subsequent analysis. At 24 hours after drug treatment, the culture medium was removed from the 6-well plate, and the cells were gently washed once with cold saline. Subsequently, 1 mL of cold saline was added to each well, and cells attached to the bottom were floated by rubbing the bottom with a 1 mL pipette. The suspension was collected in a 1.5 mL tube and centrifuged at 4° C. at 13000×g for 5 minutes. After removing a supernatant, 50 μL of a RIPA lysis buffer including a protease inhibitor cocktail (Roche, Mannheim, Germany) and purchased from Cell Signaling Technology (Danvers, Mass., USA) was added to the cell pellet. After shaking the mixture at 4° C. for 30 minutes, the obtained cells were centrifuged at 4° C. at 13000×g for 20 minutes. A supernatant was collected therefrom, and a concentration of proteins was measured using a standard curve constructed using BSA by the Bradford method. Then, the supernatant was diluted with a loading buffer and heated at 99° C. for 5 minutes. Resultant cells were used in a subsequent western blot analysis. Protein markers contained in lysates of the SH-SY5Y cells and brain tissue of the mice (SNpc and ST) were measured by western blot analysis. Briefly, after determining a concentration, a protein sample (20 μg) was separated by 8%, 10%, or 15% sodium dodecyl sulfate-polyacrylamide gel electrophoresis (SDS-PAGE). Then, proteins separated on the gel were transferred to a polyvinylidene fluoride (PVDF) membrane for 45 minutes using a Trans-Blot Turbo Transfer System (Bio-Rad, USA). […] The membrane was further incubated with monoclonal primary antibodies derived from rabbits (anti-GAPDH, anti-AMPK, anti-p-AMPK, anti-ULK, anti-p-ULK555, anti-Erk, anti-p-Erk, anti-mTOR, anti-p-mTOR, anti-LC3B, anti-TH, and anti-α-synuclein antibodies). The primary antibodies were diluted in a blocking buffer at a ratio of 1:1000 and incubated overnight at 4° C. On the second day, the membrane was washed with TBST three times (10 minutes each) and incubated at room temperature in a horseradish peroxidase-conjugated goat anti-rabbit IgG secondary antibody (diluted in a blocking buffer at a ratio of 1:2000). After incubating in the secondary antibody for 1 hour, the membrane was washed for 30 minutes. The protein blots on the membrane were developed using an ECL detection kit and visualized using an LAS-4000 mini system (Fujifilm, Japan). The intensity of the protein blots was quantified using Multi Gauge software (Fujifilm, Japan).
In general terms: Immunoblotting shows a protein as a band on a membrane.

For another experiment, the system named is LC3-II. In words: Autophagy induction assay (LC3-II/LC3-I ratio by western blot). The conditions noted are these: SH-SY5Y cells; for LC3-II expression: treatment with astersaponin I. As to the method:
Protein markers contained in lysates of the SH-SY5Y cells and brain tissue of the mice (SNpc and ST) were measured by western blot analysis. Briefly, after determining a concentration, a protein sample (20 μg) was separated by 8%, 10%, or 15% sodium dodecyl sulfate-polyacrylamide gel electrophoresis (SDS-PAGE). Then, proteins separated on the gel were transferred to a polyvinylidene fluoride (PVDF) membrane for 45 minutes using a Trans-Blot Turbo Transfer System (Bio-Rad, USA). The membrane was washed with tris-buffered saline with 0.1% Tween 20, TBST) for 5 minutes and then blocked by 5% skim milk dissolved in a TBST buffer. The membrane was further incubated with monoclonal primary antibodies derived from rabbits (anti-GAPDH, anti-AMPK, anti-p-AMPK, anti-ULK, anti-p-ULK555, anti-Erk, anti-p-Erk, anti-mTOR, anti-p-mTOR, anti-LC3B, anti-TH, and anti-α-synuclein antibodies). The primary antibodies were diluted in a blocking buffer at a ratio of 1:1000 and incubated overnight at 4° C. On the second day, the membrane was washed with TBST three times (10 minutes each) and incubated at room temperature in a horseradish peroxidase-conjugated goat anti-rabbit IgG secondary antibody (diluted in a blocking buffer at a ratio of 1:2000). After incubating in the secondary antibody for 1 hour, the membrane was washed for 30 minutes. The protein blots on the membrane were developed using an ECL detection kit and visualized using an LAS-4000 mini system (Fujifilm, Japan). The intensity of the protein blots was quantified using Multi Gauge software (Fujifilm, Japan).
To investigate the autophagy inducing effect of A. koraiensis, human neuroblastoma (SH-SY5Y) cells were cultivated in 6-well plates at a density of 8×10^5 cells/well in 2 mL DMEM medium (Gibco) at 37° C. in a humidified atmosphere with 5% CO2. […] The protein expression of LC3-II in cell lysates was measured using western blot analysis. […] The immune blots were visualized using an ECL detection kit and analyzed using a LAS-4000 mini system (Fujifilm).

Setting [3] is: AKNS-2 5 μM and 10 μM, vs control.

Regarding `C[C@@H]1O[C@@H](O[C@@H]2[C@@H](O)[C@H](O[C@@H]3[C@@H](O[C@@H]4OC[C@@H](O)[C@H](O)[C@H]4O)[C@@H](O)[C@H](O[C@H]4[C@H](OC(=O)[C@]56CCC(C)(C)C[C@H]5C5=CC[C@@H]7[C@@]8(C)C[C@H](O)[C@H](O[C@@H]9O[C@H](CO)[C@@H](O)[C@H](O[C@@H]%10OC[C@@H](O)[C@H](O)[C@H]%10O)[C@H]9O)[C@@](C)(CO)[C@@H]8CC[C@@]7(C)[C@]5(C)C[C@H]6O)OC[C@H](O)[C@@H]4O)O[C@H]3C)OC[C@H]2O)[C@H](O)[C@H](O)[C@H]1O` [Compound 1, 3-O-β-D-xylopyranosyl-(1→3)-β-D-glucopyranosylpolygalacic acid 28-O-α-L-rhamnopyranosyl-(1→3)-β-D-xylopyranosyl-(1→4)-[β-D-xylopyranosyl-(1→3)]-α-L-rhamnopyranosyl-(1→2)-α-L-arabinopyranosyl ester], in experiment [1], the “accumulation of GFP-RFP-LC3-II puncta” value was “more cytoplasmic puncta stained with green and red fluorescence were observed compared to in the control cells”. Besides, in experiment [2] (24 hours, 10 μM and 20 μM), the “expression level of p-Erk” value is “the expression level of p-Erk significantly increased” and the “expression of p-mTOR” value is “The expression of p-mTOR was inhibited”. Also, in experiment [2] (24 hours, 5, 10 and 20 μM), the “expression level of p-AMPK” value is “the expression levels of p-AMPK and p-ULK significantly increased”; the “expression level of p-ULK” value was “the expression levels of p-AMPK and p-ULK significantly increased”; the “expression of LC3-II” value is “induced the expression of LC3-II, which is an important autophagy marker, in a dose-dependent manner”. In experiment [2] (AKNS-2 5 μM and 10 μM, 24 hours, vs control), the “expression level of LC3-II” value is on record as “The expression level of LC3-II was significantly increased”. In addition, in experiment [2] (setting [3]), the “expression level of p-Erk” value was “significantly increased expression levels of p-Erk”, the “expression of p-AMPK” value is “Significantly increased expression” and the “expression of p-ULK555” value was “significantly increased expression of p-ULK555”. For the same compound, in experiment [2] (AKNS-2 10 μM alone), the “expression level of LC3-II” value is given as “significantly increased the expression level of LC3-II” and the “expression of p62” value was “induced a significant decrease in expression of p62”. Besides, the “expression of p-mTOR” value in experiment [2] (AKNS-2 10 μM, vs control) is “significantly inhibited the expression p-mTOR”. Further, the “expression of p-mTOR” value in experiment [2] (AKNS-2 (5 μM and 10 μM), AMPK siRNA experiment, normal cells) was “significantly inhibited the expression of p-mTOR”. The LC3-II/LC3-I ratio result with LC3-II (24 hours, 5 μM, 10 μM and 20 μM) is “increase in the LC3-II/LC3-I ratio in a dose-dependent manner”. In the experiment with LC3-II, the LC3-II expression result is “significantly increasing the expression”. In addition, the LC3-II expression entry in the experiment on LC3-II (listed as astersaponin I) was “up-regulated LC3-II expression in a dose-dependent manner”.
